Assay results reported in patent EP1178807B1, “USE OF ORG 33245 IN COMBINED INTERMITTENT HORMONE THERAPY AND CONTRACEPTION” (Akzo Nobel N.V., priority 1999, dated 2000).

Legend:
[1] = test system: orosomucoid; assay: Binding to orosomucoid (as described in Philibert et al.); set-up: species or system human; details: for Binding affinity to orosomucoid (relative to RU 486): relative to RU 486 (100%)
Experimental: Of several anti-progestagens the binding to orosomucoid is determined as described in Philibert et al., Antihormones in Health and Disease (M.K. Agarwal, ed.), 1991, 19, 1-17.

[2] = Anti-McPhail test for anti-progestagenic activity; format: in vivo; details: Minimum Active Dose (MAD)
Experimental: Anti-progestagenic activity is determined by using an anti-McPhail test as known to the person skilled in the art and described, int.al., in Kloosterboer et al., Human Reproduction (1994), Volume 9, Supplement 1, pages 47-52.

Row | Compound | Binding affinity to orosomucoid (relative to RU 486) [1] | minimal effective dose [2] [mg/kg] | binding to human orosomucoid ([1]; result in words, said to indicate a relatively long half life)
1 | C=C1CCO[C@]12CC[C@H]1[C@@H]3CCC4=CC(=O)CCC4=C3[C@@H](c3ccc(C(C)=O)cc3)C[C@@]12C | 13,5% | 8 | 
2 | C=C1CCO[C@]12CC[C@H]1[C@@H]3CCC4=CC(=O)CCC4=C3[C@@H](c3ccc(SC)cc3)C[C@@]12C | 82% | > 1 | 
3 | C=C1CCO[C@]12CC[C@H]1[C@@H]3CCC4=CC(=O)CCC4=C3[C@@H](c3ccc(OC)cc3)C[C@@]12C | 64% | 1 | 
4 | C=C1CCO[C@]12CC[C@H]1[C@@H]3CCC4=CC(=O)CCC4=C3[C@@H](c3ccc(N(C)C)cc3)C[C@@]12C [Org 33245, (11β,17α)-17,23-epoxy-11-[(4-dimethylamino)phenyl]-19,24-dinorchola-4,9,20-trien-3-one] | 222% | 0.5 | strong binding
